Source: the NIST ThermoML archive (doi:10.1021/je900387e)

Assay: xn = mol fraction of the nth substance listed
Conditions: Liquid, Pycnometric method

CCCCCl [1-chlorobutane] + O=C=O
Conditions | mass density [kg/m3]
313.1 K, 10970 kPa, x1 = 0.0744 | 828
313.1 K, 11030 kPa, x1 = 0.0243 | 763
313.1 K, 11220 kPa, x1 = 0.0483 | 800
313.1 K, 11230 kPa, x1 = 0.0981 | 855
313.1 K, 11350 kPa, x1 = 0.0744 | 833
313.1 K, 11500 kPa, x1 = 0.1488 | 870
313.1 K, 11510 kPa, x1 = 0.0483 | 806
313.1 K, 11780 kPa, x1 = 0.0744 | 839
313.1 K, 11810 kPa, x1 = 0.0483 | 811
313.1 K, 11820 kPa, x1 = 0.0981 | 862
313.1 K, 12110 kPa, x1 = 0.0483 | 816
313.1 K, 12170 kPa, x1 = 0.1488 | 875
313.1 K, 12220 kPa, x1 = 0.0744 | 844
313.1 K, 12430 kPa, x1 = 0.0744 | 847
313.1 K, 12440 kPa, x1 = 0.0981 | 869
313.1 K, 12540 kPa, x1 = 0.1488 | 878
313.1 K, 12780 kPa, x1 = 0.0981 | 872
313.1 K, 12890 kPa, x1 = 0.1488 | 880
313.1 K, 13000 kPa, x1 = 0.0981 | 874
313.1 K, 13240 kPa, x1 = 0.1488 | 883
313.1 K, 13660 kPa, x1 = 0.1488 | 885
313.1 K, 14020 kPa, x1 = 0.1488 | 888
313.1 K, 14460 kPa, x1 = 0.1488 | 890
313.1 K, 14830 kPa, x1 = 0.1488 | 893
314.5 K, 8320 kPa, x1 = 0.0243 | 495
314.5 K, 8330 kPa, x1 = 0.0243 | 501
314.5 K, 8360 kPa, x1 = 0.0243 | 510
314.5 K, 8390 kPa, x1 = 0.0243 | 522
314.5 K, 8430 kPa, x1 = 0.0243 | 531
314.5 K, 8460 kPa, x1 = 0.0243 | 541
314.5 K, 8490 kPa, x1 = 0.0243 | 552
314.5 K, 8530 kPa, x1 = 0.0243 | 562
314.5 K, 8590 kPa, x1 = 0.0243 | 575
314.5 K, 8650 kPa, x1 = 0.0243 | 588
314.5 K, 8720 kPa, x1 = 0.0243 | 602
314.5 K, 8820 kPa, x1 = 0.0243 | 617
314.5 K, 8930 kPa, x1 = 0.0243 | 632
314.5 K, 9080 kPa, x1 = 0.0243 | 648
314.5 K, 9270 kPa, x1 = 0.0243 | 664
314.5 K, 9480 kPa, x1 = 0.0243 | 680
314.5 K, 9790 kPa, x1 = 0.0243 | 698
314.5 K, 10150 kPa, x1 = 0.0243 | 715
314.5 K, 10480 kPa, x1 = 0.0243 | 729
314.5 K, 10730 kPa, x1 = 0.0243 | 738
314.5 K, 11030 kPa, x1 = 0.0243 | 748
314.5 K, 11370 kPa, x1 = 0.0243 | 758
314.5 K, 11740 kPa, x1 = 0.0243 | 767
317.9 K, 7340 kPa, x1 = 0.1488 | 805
317.9 K, 7730 kPa, x1 = 0.0981 | 761
317.9 K, 7740 kPa, x1 = 0.1488 | 811
317.9 K, 7900 kPa, x1 = 0.0981 | 766
317.9 K, 8050 kPa, x1 = 0.0744 | 713
317.9 K, 8060 kPa, x1 = 0.1488 | 815
317.9 K, 8090 kPa, x1 = 0.0981 | 771
317.9 K, 8230 kPa, x1 = 0.0744 | 720
317.9 K, 8310 kPa, x1 = 0.0981 | 777
317.9 K, 8360 kPa, x1 = 0.0744 | 727
317.9 K, 8450 kPa, x1 = 0.1488 | 820
317.9 K, 8520 kPa, x1 = 0.0744 | 733
317.9 K, 8530 kPa, x1 = 0.0483 | 630
317.9 K, 8530 kPa, x1 = 0.0981 | 782
317.9 K, 8560 kPa, x1 = 0.0243 | 417
317.9 K, 8590 kPa, x1 = 0.0243 | 423
317.9 K, 8590 kPa, x1 = 0.0483 | 636
317.9 K, 8630 kPa, x1 = 0.0243 | 433
317.9 K, 8670 kPa, x1 = 0.0243 | 443
317.9 K, 8690 kPa, x1 = 0.0483 | 646
317.9 K, 8690 kPa, x1 = 0.0744 | 740
317.9 K, 8720 kPa, x1 = 0.0243 | 453
317.9 K, 8750 kPa, x1 = 0.0243 | 464
317.9 K, 8770 kPa, x1 = 0.0981 | 787
317.9 K, 8790 kPa, x1 = 0.0243 | 473
317.9 K, 8810 kPa, x1 = 0.0483 | 656
317.9 K, 8830 kPa, x1 = 0.1488 | 823
317.9 K, 8850 kPa, x1 = 0.0243 | 484
317.9 K, 8880 kPa, x1 = 0.0744 | 746
317.9 K, 8890 kPa, x1 = 0.0243 | 496
317.9 K, 8940 kPa, x1 = 0.0243 | 507
317.9 K, 8940 kPa, x1 = 0.0483 | 667
317.9 K, 8990 kPa, x1 = 0.0243 | 520
317.9 K, 9050 kPa, x1 = 0.0981 | 793
317.9 K, 9060 kPa, x1 = 0.0243 | 534
317.9 K, 9080 kPa, x1 = 0.0483 | 678
317.9 K, 9110 kPa, x1 = 0.0744 | 753
317.9 K, 9140 kPa, x1 = 0.0243 | 549
317.9 K, 9200 kPa, x1 = 0.0483 | 689
317.9 K, 9230 kPa, x1 = 0.0243 | 565
317.9 K, 9240 kPa, x1 = 0.1488 | 828
317.9 K, 9340 kPa, x1 = 0.0243 | 582
317.9 K, 9350 kPa, x1 = 0.0981 | 799
317.9 K, 9360 kPa, x1 = 0.0744 | 760
317.9 K, 9460 kPa, x1 = 0.0243 | 599
317.9 K, 9490 kPa, x1 = 0.0483 | 701
317.9 K, 9580 kPa, x1 = 0.0243 | 615
317.9 K, 9600 kPa, x1 = 0.0744 | 766
317.9 K, 9650 kPa, x1 = 0.0981 | 804
317.9 K, 9660 kPa, x1 = 0.1488 | 832
317.9 K, 9740 kPa, x1 = 0.0243 | 630
317.9 K, 9770 kPa, x1 = 0.0483 | 713
317.9 K, 9840 kPa, x1 = 0.0243 | 639
317.9 K, 9890 kPa, x1 = 0.0744 | 773
317.9 K, 9950 kPa, x1 = 0.0243 | 647
317.9 K, 10010 kPa, x1 = 0.0981 | 810
317.9 K, 10030 kPa, x1 = 0.0243 | 654
317.9 K, 10090 kPa, x1 = 0.0483 | 725
317.9 K, 10090 kPa, x1 = 0.1488 | 836
317.9 K, 10220 kPa, x1 = 0.0744 | 780
317.9 K, 10350 kPa, x1 = 0.0483 | 734
317.9 K, 10350 kPa, x1 = 0.0981 | 815
317.9 K, 10560 kPa, x1 = 0.0744 | 787
317.9 K, 10580 kPa, x1 = 0.1488 | 841
317.9 K, 10650 kPa, x1 = 0.0483 | 742
317.9 K, 10750 kPa, x1 = 0.0981 | 822
317.9 K, 10940 kPa, x1 = 0.0744 | 794
317.9 K, 10970 kPa, x1 = 0.0483 | 752
317.9 K, 11090 kPa, x1 = 0.1488 | 847
317.9 K, 11180 kPa, x1 = 0.0981 | 827
317.9 K, 11340 kPa, x1 = 0.0483 | 761
317.9 K, 11370 kPa, x1 = 0.0744 | 802
317.9 K, 11620 kPa, x1 = 0.1488 | 851
317.9 K, 11670 kPa, x1 = 0.0981 | 834
317.9 K, 11740 kPa, x1 = 0.0483 | 770
317.9 K, 11860 kPa, x1 = 0.0744 | 810
317.9 K, 11940 kPa, x1 = 0.1488 | 853
317.9 K, 12140 kPa, x1 = 0.0981 | 839
317.9 K, 12220 kPa, x1 = 0.0483 | 780
317.9 K, 12240 kPa, x1 = 0.1488 | 856
317.9 K, 12370 kPa, x1 = 0.0744 | 817
317.9 K, 12520 kPa, x1 = 0.1488 | 858
317.9 K, 12690 kPa, x1 = 0.0981 | 846
317.9 K, 12740 kPa, x1 = 0.0483 | 790
317.9 K, 12850 kPa, x1 = 0.1488 | 861
317.9 K, 12930 kPa, x1 = 0.0744 | 825
317.9 K, 13140 kPa, x1 = 0.1488 | 863
317.9 K, 13250 kPa, x1 = 0.0981 | 852
317.9 K, 13320 kPa, x1 = 0.0483 | 800
317.9 K, 13440 kPa, x1 = 0.1488 | 865
317.9 K, 13510 kPa, x1 = 0.0744 | 833
317.9 K, 13620 kPa, x1 = 0.0483 | 805
317.9 K, 13800 kPa, x1 = 0.1488 | 868
317.9 K, 13830 kPa, x1 = 0.0981 | 859
317.9 K, 13950 kPa, x1 = 0.0483 | 811
317.9 K, 14180 kPa, x1 = 0.0744 | 841
317.9 K, 14190 kPa, x1 = 0.1488 | 871
317.9 K, 14300 kPa, x1 = 0.0483 | 816
317.9 K, 14480 kPa, x1 = 0.1488 | 873
317.9 K, 14530 kPa, x1 = 0.0981 | 865
317.9 K, 14860 kPa, x1 = 0.1488 | 875
317.9 K, 14910 kPa, x1 = 0.0744 | 849
317.9 K, 15220 kPa, x1 = 0.0981 | 872
322.7 K, 7900 kPa, x1 = 0.1488 | 782
322.7 K, 8140 kPa, x1 = 0.1488 | 786
322.7 K, 8330 kPa, x1 = 0.0981 | 728
322.7 K, 8380 kPa, x1 = 0.1488 | 789
322.7 K, 8510 kPa, x1 = 0.0981 | 734
322.7 K, 8620 kPa, x1 = 0.0243 | 328
322.7 K, 8620 kPa, x1 = 0.0981 | 739
322.7 K, 8630 kPa, x1 = 0.0744 | 669
322.7 K, 8670 kPa, x1 = 0.1488 | 794
322.7 K, 8690 kPa, x1 = 0.0243 | 336
322.7 K, 8740 kPa, x1 = 0.0744 | 675
322.7 K, 8750 kPa, x1 = 0.0243 | 343
322.7 K, 8780 kPa, x1 = 0.0981 | 744
322.7 K, 8810 kPa, x1 = 0.0243 | 351
322.7 K, 8860 kPa, x1 = 0.0243 | 360
322.7 K, 8860 kPa, x1 = 0.0744 | 683
322.7 K, 8920 kPa, x1 = 0.0243 | 368
322.7 K, 8940 kPa, x1 = 0.0981 | 749
322.7 K, 8970 kPa, x1 = 0.1488 | 798
